Results published in ChEMBL document CHEMBL4257544, “Synthesis and biological evaluation of novel asymmetric naphthalene diimide derivatives as anticancer agents depending on ROS generation” (Medchemcomm, 2018).

Assays:
[1] = tested on: HepG2; experiment: Cytotoxicity against human HepG2 cells after 48 hrs by MTT assay; format: functional, cell-based; conditions: HepG2, 48 h
[2] = tested on: SMMC-7721; experiment: Cytotoxicity against human SMMC7721 cells after 48 hrs by MTT assay; format: functional, cell-based; conditions: SMMC-7721, 48 h
[3] = tested on: MDA-MB-231; experiment: Cytotoxicity against human MDA-MB-231 cells after 48 hrs by MTT assay; format: functional, cell-based; conditions: MDA-MB-231, 48 h
[4] = tested on: MCF7; experiment: Cytotoxicity against human MCF7 cells after 48 hrs by MTT assay; format: functional, cell-based; conditions: MCF7, 48 h
[5] = tested on: HCT-116; experiment: Cytotoxicity against human HCT116 cells after 48 hrs by MTT assay; format: functional, cell-based; conditions: HCT-116, 48 h
[6] = Solubility of the compound; format: physicochemical

solubility [6]	Structure (SMILES)	IC50 [1] [µM]	IC50 [2] [µM]	IC50 [3] [µM]	IC50 [4] [µM]	IC50 [5] [µM]
–	CCCCN1C(=O)c2ccc3c4c(ccc(c24)C1=O)C(=O)N(c1cccnc1)C3=O	35.9	37.9	> 50	> 50	36.3
Insoluble	CCCCN1C(=O)c2ccc3c4c(ccc(c24)C1=O)C(=O)N(C1CCCCC1)C3=O	> 50	> 50	> 50	> 50	45.9
–	CN(C)CCCN1C(=O)c2ccc3c4c(ccc(c24)C1=O)C(=O)N(CCCO)C3=O	5.96	4.44	6.21	3.36	5.29
Insoluble	CCCCN1C(=O)c2ccc3c4c(ccc(c24)C1=O)C(=O)N(C1CC1)C3=O	> 50	> 50	> 50	> 50	16.3
Insoluble	CCCCN1C(=O)c2ccc3c4c(ccc(c24)C1=O)C(=O)N(CC(C)C)C3=O	45.2	36.4	> 50	39.6	28.2
Insoluble	CCCCN1C(=O)c2ccc3c4c(ccc(c24)C1=O)C(=O)N(CC1CC1)C3=O	> 50	> 50	> 50	> 50	32.3
Insoluble	CCCCN1C(=O)c2ccc3c4c(ccc(c24)C1=O)C(=O)N(CCC)C3=O	> 50	> 50	> 50	> 50	> 50
–	O=C1c2ccc3c4c(ccc(c24)C(=O)N1CCCO)C(=O)N(CCCN1CCOCC1)C3=O	3.08	2.7	7.64	6.98	4.35
–	CC(C)CN1C(=O)c2ccc3c4c(ccc(c24)C1=O)C(=O)N(CCCO)C3=O	4.14	3.8	5.39	4.78	8.29
–	CN(C)CCN1C(=O)c2cccc3cc(N)cc(c23)C1=O [AMONAFIDE]	9.45	9.37	6.62	12.9	6.46
–	CCCCN1C(=O)c2ccc3c4c(ccc(c24)C1=O)C(=O)N(CCCN1CCOCC1)C3=O	30.6	25.4	18.2	21.4	32.7
–	CCCCN1C(=O)c2ccc3c4c(ccc(c24)C1=O)C(=O)N(c1ncccn1)C3=O	17	35.1	15.1	12.6	9.22
